The subject of one data set is Neuro2a cells. As to the kind of experiment: Gene induction in Neuro2a cells (qtPCR). In kind it is cell-based, mouse. The settings on record: 10 ug/ml, 3 hours, compared to 5′pppRNA. The method, then:
(§1) RNA was collected from cell pellets and qtPCR was performed with indicated primers. Data is depicted as mRNA fold-change versus vehicle. Values are normalized to actin and are presented as fold change over vehicle control.
(§2) Total RNA isolated from brain cortex, or RNA from cell culture, was reverse transcribed using an Omniscript Reverse Transcription kit (Qiagen). Quantitative PCR was performed using the TaqMan Gene Expression Assays (Applied Biosystems) on an ABI-prism 7700. Results were normalized to β-actin expression and analyzed relative to appropriate controls. The relative quantification of the gene of interest was determined using the comparative CT method (2^−ΔΔCt)
(§3) Since inflammatory pathways mediated by NF-κB are known to have negative effects on stroke outcome, the induction of key detrimental genes including TNF and IL-6 in response to drug treatment was evaluated. […] RNA was collected from cell pellets and qtPCR was performed with indicated primers. Values are normalized to actin and are presented as fold change over vehicle control.

For the next data set, the system named is BV2 cells. As to the kind of experiment: Gene induction in BV2 cells (qtPCR). In kind it is cell-based, mouse. The settings on record: 10 ug/ml, 3 hours, compared to 5′pppRNA. Here is the method:
as §1, §2, §3

The test system of a further data set is cerebral ischemic injury. As to the kind of experiment: Middle cerebral artery occlusion (MCAO), infarct volume. The settings on record: 60 minute MCAO, 24 hours. The format is in vivo, mouse. Here is the method:
Mice were anesthetized and subjected to middle cerebral artery occlusion (MCAO) using the monofilament suture method. Briefly, a silicone-coated 7-0 monofilament nylon surgical suture was threaded through the external carotid artery to the internal carotid artery to block the middle cerebral artery; […] The suture was then removed to restore blood flow. Mice undergoing ischemic preconditioning followed by injurious ischemia were rested in their home cage for 72 h before receiving the second MCAO (45 min). Cerebral blood flow (CBF) was monitored throughout surgery by laser Doppler flowmetry. The mean CBF value between groups was consistent for each experiment. […] Body temperature was monitored and maintained at 37° C. with a thermostat-controlled heating pad.
Mouse brain was sliced into 7×1 mm coronal sections before 2,3,5-triphenyltetrazolium chloride TTC staining, and the volume of infarct was determined by summing of the area of infarct from individual slices. The infarct size for each image was determined using NIH image analyses. […]
IRFs are master regulators of innate immune receptors, constituting a family of DNA-binding proteins expressed in a variety of tissues. […] Infarct volume was measured 24 hours after surgery. […] Specifically, gene transcription was measured in the brain 24 hours post MCAO in LPS preconditioned wildtype, IRF3 deficient, and IRF7 deficient mice using quantitative PCR. […]

The subject of another data set is J774-Dual cells. As to the kind of experiment: J774-Dual cytotoxicity. The format is cell-based, mouse. The settings on record: Mouse Reporter Cell Line J774; read-out: J774 cytotox CC50. Summed up:
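Orthogonal cross-species screen in mouse J774-Dual cells using 8-point dose-response format. Cytotoxicity measured in-plate by CellTiter-Glo luminescence, giving CC50 alongside EC50 and ISRE:NFκB ratios.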

A further data set has as its system THP1-Dual cells. As to the kind of experiment: THP1-Dual cytotoxicity (Cell Titer Glo, ATP). The format is cell-based, human. The settings on record: Human Reporter Cell Line THP1; read-out: Thp1 cytotox CC50. Summed up:
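Human THP1-Dual cells were treated across an 8-point dose-response range. Cytotoxicity was measured in-plate by CellTiter-Glo luminescence, which quantifies ATP as a marker of metabolically active cells, and CC50 was taken as the 50% cytotoxic concentration.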

A value given as a limit tells only on which side of the number the result lay.

For `Cc1ccc2c(=O)c3cccc(CC(=O)O)c3oc2c1C` [DMXAA, 5,6-dimethylxanthenone-4-acetic acid], the “induction of IRF-regulated genes RSAD2 and IFIT1” value with Neuro2a cells and in the data set on BV2 cells was “most robust induction” throughout. Also, the “protection against ischemic injury in mice lacking IRF3” value in the data set with cerebral ischemic injury (IRF3 KO mice, 250 μg IP) is recorded as “not protected”. The “reduction in ischemic injury (infarct volume) compared to controls” value with cerebral ischemic injury (wild-type mice, 250 μg IP at onset of reperfusion) turned out to be 2 fold.
With `COc1ccc(C(=O)Nc2cc(-c3nc4ccccc4s3)ccc2C)cc1[N+](=O)[O-]` [ND52, N-[5-(1,3-benzothiazol-2-yl)-2-methylphenyl]-4-methoxy-3-nitrobenzamide], in the data set on J774-Dual cells, the CC50 amounted to 101 µM.
Take `COc1ccc(C(=O)Nc2cc(-c3nc4ccccc4s3)ccc2C)cc1[N+](=O)[O-]` [ND-38]: the CC50 in the data set on THP1-Dual cells is 44.9 µM; with J774-Dual cells, more than 25 µM.

The record behind these values is patent US20220395500A1, “SMALL MOLECULE ACTIVATORS OF INTERFERON REGULATORY FACTOR 3 AND METHODS OF USE THEREOF” (Neuralexo, Inc., priority 2020, published 2022).
